Source: ChEMBL document CHEMBL1201862, “PubChem BioAssay data set” (2004)
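Following 48 hours of exposure in 96-well plates, responses at five concentrations were used to interpolate endpoints linearly. At the GI50, growth is halved.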 Active and inactive are the calls of the source. Rule as the data show it: active = GI50 up to about 1.1 µM and inactive = higher.

Legend:
Test in all cases: DTP human tumour cell line panel, 48 h
[1] = test system: HL-60
[2] = test system: MCF7
[3] = test system: HCT-15
[4] = test system: Malme-3M
[5] = test system: M19-MEL
[6] = test system: U-251
[7] = test system: UO-31
[8] = test system: SK-MEL-28
[9] = test system: OVCAR-4
[10] = test system: HOP-92
[11] = test system: SF-539
[12] = test system: OVCAR-3
[13] = test system: NCI-H522
[14] = test system: RXF 393
[15] = test system: HT-29
[16] = test system: A549
[17] = test system: HCT-116
[18] = test system: DMS-114
[19] = test system: K562
[20] = test system: SK-MEL-5
[21] = test system: SNB-19
[22] = test system: MOLT-4
[23] = test system: A498
[24] = test system: XF498
[25] = test system: OVCAR-8
[26] = test system: SF-295
[27] = test system: CAKI-1
[28] = test system: KM-20L2
[29] = test system: NCI-H23
[30] = test system: SK-OV-3
[31] = test system: SF-268
[32] = test system: DLD-1
[33] = test system: UACC-257
[34] = test system: DMS-273
[35] = test system: OVCAR-5
[36] = test system: RPMI-8226
[37] = test system: KM12
[38] = test system: IGROV-1
[39] = test system: LOX IMVI
[40] = test system: SNB-78
[41] = test system: EKVX
[42] = test system: HOP-62
[43] = test system: SW-620
[44] = test system: CCRF-CEM
[45] = test system: NCI/ADR-RES
[46] = test system: NCI-H460
[47] = test system: NCI-H226
[48] = test system: UACC-62
[49] = test system: HCC 2998
[50] = test system: SNB-75
[51] = test system: SN12C
[52] = test system: SK-MEL-2
[53] = test system: HOP-18
[54] = test system: COLO 205

## NC(Cc1cc(I)c(O)c(I)c1)C(=O)O (stereo not drawn)
[1]
  GI50: 185 µM (inactive)
[2]
  GI50: > 394 µM (inactive)
[3]
  GI50: 307 µM
[4]
  GI50: > 500 µM (inactive)
[5]
  GI50: > 323 µM (inactive)
[6]
  GI50: > 500 µM (inactive)
[7]
  GI50: > 500 µM (inactive)
[8]
  GI50: > 500 µM (inactive)
[9]
  GI50: 211 µM (inactive)
[10]
  GI50: 13.6 µM (inactive)
[11]
  GI50: > 392 µM (inactive)
[12]
  GI50: > 500 µM (inactive)
[13]
  GI50: 44.5 µM (inactive)
[14]
  GI50: 252 µM (inactive)
[15]
  GI50: > 346 µM (inactive)
[16]
  GI50: > 500 µM (inactive)
[17]
  GI50: 470 µM (inactive)
[18]
  GI50: 185 µM (inactive)
[19]
  GI50: > 500 µM (inactive)
[20]
  GI50: > 500 µM (inactive)
[21]
  GI50: 249 µM (inactive)
[22]
  GI50: 401 µM (inactive)
[23]
  GI50: > 500 µM (inactive)
[24]
  GI50: > 348 µM (inactive)
[25]
  GI50: > 500 µM (inactive)
[26]
  GI50: > 500 µM (inactive)
[27]
  GI50: 45.4 µM (inactive)
[28]
  GI50: > 500 µM (inactive)
[29]
  GI50: > 287 µM (inactive)
[30]
  GI50: > 500 µM (inactive)
[31]
  GI50: > 484 µM (inactive)
[32]
  GI50: 418 µM (inactive)
[33]
  GI50: 293 µM (inactive)
[34]
  GI50: > 206 µM (inactive)
[35]
  GI50: > 427 µM (inactive)
[36]
  GI50: > 500 µM (inactive)
[37]
  GI50: > 500 µM (inactive)
[38]
  GI50: > 500 µM (inactive)
[39]
  GI50: 209 µM (inactive)
[40]
  GI50: > 500 µM (inactive)
[41]
  GI50: > 316 µM (inactive)
[42]
  GI50: > 500 µM (inactive)
[43]
  GI50: 163 µM (inactive)
[44]
  GI50: 255 µM (inactive)
[45]
  GI50: > 316 µM (inactive)
[46]
  GI50: 301 µM (inactive)
[47]
  GI50: > 500 µM (inactive)
[48]
  GI50: > 279 µM (inactive)
[49]
  GI50: > 500 µM (inactive)
[50]
  GI50: > 249 µM (inactive)
[51]
  GI50: > 500 µM (inactive)
[52]
  GI50: > 500 µM (inactive)
[53]
  GI50: 466 µM (inactive)
[54]
  GI50: 263 µM (inactive)

## [N-]=[N+]=CC(=O)CCC(NC(=O)C(CCC(=O)C=[N+]=[N-])NC(=O)CCC(N)C(=O)O)C(=O)O (stereo not drawn)
[1]
  GI50: > 100 µM (inactive)
[2]
  GI50: > 100 µM (inactive)
[3]
  GI50: > 100 µM
[4]
  GI50: > 100 µM (inactive)
[5]
  GI50: > 100 µM (inactive)
[6]
  GI50: > 100 µM (inactive)
[7]
  GI50: > 100 µM (inactive)
[8]
  GI50: > 100 µM (inactive)
[9]
  GI50: > 100 µM (inactive)
[10]
  GI50: > 100 µM (inactive)
[11]
  GI50: > 100 µM (inactive)
[12]
  GI50: > 100 µM (inactive)
[13]
  GI50: > 100 µM (inactive)
[14]
  GI50: > 100 µM (inactive)
[15]
  GI50: > 100 µM (inactive)
[16]
  GI50: > 100 µM (inactive)
[17]
  GI50: > 100 µM (inactive)
[18]
  GI50: > 100 µM (inactive)
[19]
  GI50: > 100 µM (inactive)
[20]
  GI50: > 100 µM (inactive)
[21]
  GI50: > 100 µM (inactive)
[22]
  GI50: > 100 µM (inactive)
[23]
  GI50: > 100 µM (inactive)
[24]
  GI50: > 100 µM (inactive)
[25]
  GI50: > 100 µM (inactive)
[26]
  GI50: > 100 µM (inactive)
[27]
  GI50: > 100 µM (inactive)
[28]
  GI50: > 100 µM (inactive)
[29]
  GI50: > 100 µM (inactive)
[30]
  GI50: > 100 µM (inactive)
[31]
  GI50: > 100 µM (inactive)
[32]
  GI50: > 100 µM (inactive)
[33]
  GI50: > 100 µM (inactive)
[34]
  GI50: > 100 µM (inactive)
[35]
  GI50: > 100 µM (inactive)
[36]
  GI50: > 100 µM (inactive)
[37]
  GI50: 31.6 µM (inactive)
[38]
  GI50: > 100 µM (inactive)
[39]
  GI50: > 100 µM (inactive)
[40]
  GI50: > 100 µM (inactive)
[41]
  GI50: > 100 µM (inactive)
[42]
  GI50: > 100 µM (inactive)
[43]
  GI50: > 100 µM (inactive)
[44]
  GI50: > 100 µM (inactive)
[45]
  GI50: > 100 µM (inactive)
[46]
  GI50: > 100 µM (inactive)
[47]
  GI50: > 100 µM (inactive)
[48]
  GI50: > 100 µM (inactive)
[49]
  GI50: > 100 µM (inactive)
[50]
  GI50: > 100 µM (inactive)
[51]
  GI50: > 100 µM (inactive)
[52]
  GI50: > 100 µM (inactive)
[53]
  GI50: > 100 µM (inactive)
[54]
  GI50: > 100 µM (inactive)
